Test results published in paper PMC7926793, “Synthesis and Biological Evaluation of 1-(Diarylmethyl)-1H-1,2,4-triazoles and 1-(Diarylmethyl)-1H-imidazoles as a Novel Class of Anti-Mitotic Agent for Activity in Breast Cancer” (Pharmaceuticals, 2021).

Experiments:
[1] = tested on: purified bovine brain tubulin; assay: tubulin polymerisation assay; assay type: biochemical; conditions: 10 μM
Method: The assembly of purified bovine tubulin was monitored using a kit, BK006, purchased from Cytoskeleton Inc. (Denver, CO, USA). […] Light is scattered proportionally to the concentration of polymerised microtubules in the assay. Therefore, tubulin assembly was monitored turbidimetrically at 340 nm in a Spectramax 340 PC spectrophotometer (Molecular Devices, Sunnyvale, CA, USA). The absorbance was measured at 30 s intervals for 60 min.

HL-60 leukaemia cells = tested on: HL-60 leukaemia cells; parameters: method as in PMID 19647439; conditions: read-out: IC50 of phenstatin in HL-60; cited from earlier work
[2] = tested on: MCF-7 human breast cancer cells; assay: alamarBlue cell viability assay; assay type: cell-based; conditions: Homo sapiens, MCF7, 72 h, read-out: cell viability (viable cells)
Method: The human breast carcinoma cell line MCF-7 was purchased from the European Collection of Animal Cell Cultures (ECACC) and cultured in Eagles minimum essential medium with 10% foetal bovine serum, 2 mM L-glutamine, and 100 μg/mL penicillin/streptomycin. The medium was supplemented with 1% non-essential amino acids. The human breast carcinoma cell line MDA-MB-231 was purchased from the ECACC. MDA-MB-231 cells were maintained in Dulbecco’s modified Eagle’s medium (DMEM) supplemented with 10% (v/v) foetal bovine serum, 2 mM L-glutamine, and 100 μg/mL penicillin/streptomycin (complete medium). HL-60 cells were derived from a patient with acute myeloid leukaemia and were obtained from the ECACC (Salisbury, UK). Cells were cultured in RPMI-1640 Glutamax medium supplemented with 10% FCS media and 100 μg/mL penicillin/streptomycin. MCF-10A cells were obtained as a kind gift from Dr Susan McDonnell, School of Chemical and Bioprocess Engineering, University College Dublin and were cultured in Dulbecco’s Modified Eagle Medium: Nutrient Mixture F-12 (DMEM/F12; Gibco) supplemented with 5% horse serum (Invitrogen), 20 ng mL^−1 epidermal growth factor (Merck Millipore), 0.5 μg mL^−1 hydrocortisone (Sigma,-Aldrich, Arklow, Co. Wicklow, Ireland), 100 ng mL^−1 cholera toxin (Sigma, Aldrich, Arklow, Co. Wicklow, Ireland), 10 μg mL^−1 insulin (Sigma, Aldrich, Arklow, Co. Wicklow, Ireland), and penicillin/streptomycin 5000 U mL^−1 (1%)(Gibco, Biosciences, 3 Charlemont Terrace, Crofton Road, Dun Laoghaire, Co Dublin, A96 K7H7, Ireland). Cells were maintained at 37 °C in 5% CO2 in a humidified incubator. All cells were sub-cultured 3 times/week by trypsinisation using TrypLE Express (1×).
Cells were seeded at a density of 2.5 × 10^4 cells/well (MCF-7, MDA-MB-231, MCF-10A cells) and 1 × 10^4 cells/well (HL-60) in 96-well plates (200 μL per well). After 24 h, cells were then treated with either medium alone, vehicle control (1% ethanol (v/v)) or with serial dilutions of CA-4 (4a), phenstatin (7a) or selected compounds (0.001–100 μM) in triplicate. Cell proliferation for MCF-7, MDA-MB-231, and MCF-10A cells was analysed using the alamarBlue assay (Invitrogen Corp.) according to the manufacturer’s instructions. After 67–69 h, alamarBlue (10% (v/v)) was added to each well, and plates were incubated for 3–5 h at 37 °C in the dark. Fluorescence was read using a 96-well fluorimeter with excitation at 530 nm and emission at 590 nm. Results were expressed as percentage viability relative to vehicle control (100%).

MCF-7 cells [3] = assay: Annexin V/PI apoptotic assay; assay type: cell-based, human; conditions: for Annexin V-stained positive cells (total apoptotic cells): 48 h
Method: (§1) Apoptotic cell death was detected by flow cytometry using Annexin V and propidium iodide (PI). MCF-7 and MDA-MB-231 cells were seeded in 6-well plates at a density of 1 × 10^5 cells/mL (3 mL) and treated with either vehicle (0.1% (v/v) EtOH), Phenstatin (7a), or 21l at different concentrations for the selected time. Then, cells were harvested and prepared for flow cytometric analysis. […] Then, cells were washed once in binding buffer and then re-suspended in PI-containing binding buffer (1:1000). […] Four populations are produced during the assay: Annexin V and PI negative (Q4, healthy cells), Annexin V positive and PI negative (Q3, early apoptosis), Annexin V and PI positive (Q2, late apoptosis), and Annexin V negative and PI positive (Q1, necrosis).

MDA-MB-231 cells = assay: Annexin V/PI apoptotic assay; assay type: cell-based, human; conditions: for total apoptotic cells: 48 h
Method: as §1

[4] = tested on: MCF-7 human breast cancer cells; conditions: MCF-7 section; read-out: IC50 of phenstatin positive control; cited from earlier work
[5] = tested on: tubulin (microtubule network) in MCF-7 cells; assay: immunofluorescence confocal microscopy of microtubule network; assay type: cell-based, human; conditions: 1 μM, 16 h
Method: Confocal microscopy was used to study the effects of drug treatment on MCF-7 cytoskeleton. For immunofluorescence, MCF-7 cells were seeded at 1 × 10^5 cells/mL on eight chamber glass slides (BD Biosciences). […] Following treatment, cells were gently washed in PBS, fixed for 20 min with 4% paraformaldehyde in PBS, and permeabilised in 0.5% Triton X-100. Following washes in PBS containing 0.1% Tween (PBST), cells were blocked in 5% bovine serum albumin diluted in PBST. […] Following washes in PBST, the cells were mounted in Ultra Cruz Mounting Media (Santa Cruz Biotechnology, Santa Cruz, CA) containing 4,6-diamino-2-phenolindol dihydrochloride (DAPI). Images were captured by Leica SP8 confocal microscopy with Leica application suite X software. All images in each experiment were collected on the same day using identical parameters. Experiments were performed on three independent occasions.

MCF-7 cells [6] = assay: cell cycle analysis, PI staining, flow cytometry; assay type: cell-based, human; conditions: 1 μM
Method: The cells were collected by trypsinisation and centrifuged at 800× g for 15 min. Cells were washed twice with ice-cold phosphate-buffered saline (PBS) and fixed in ice-cold 70% ethanol overnight at −20 °C.

[7] = tested on: MDA-MB-231 human breast cancer cells; parameters: method as in PMID 25721862; conditions: read-out: reported IC50 of phenstatin in MDA-MB-231 cells; cited from earlier work
[8] = Homo sapiens, MCF7, 48 h, read-out: Viable
[9] = Homo sapiens, MDA-MB-231, 48 h, read-out: Viable

In the case of `COc1ccc(C(=O)c2cc(OC)c(OC)c(OC)c2)cc1O` [phenstatin, (3-Hydroxy-4-Methoxyphenyl)(3,4,5-Trimethoxyphenyl)Methanone, reference compound], the “effect on tubulin polymerisation and assembly” value [1] is listed as “significant inhibition of tubulin polymerisation”, the IC50 (HL-60 leukaemia cells) is listed as 0.031 µM and the viability at 1 µM [2] is listed as 30%. For the same molecule, the viability at 0.1 µM (MCF-7 cells [3]; [8]) was 58.4%, the viability at 0.5 µM (MCF-7 cells [3]; [8]) was 50.7% and the “Annexin V-stained positive cells (total apoptotic cells)” value (MCF-7 cells [3]; MCF-7, 0.1 μM) was 36.1%. The “Annexin V-stained positive cells (total apoptotic cells)” value (MCF-7 cells [3]; MCF-7, 0.5 μM) was 46%, the viability at 0.1 µM (MDA-MB-231 cells; [9]) was 80.4% and the viability at 0.5 µM (MDA-MB-231 cells; [9]) was 80.6%. The total apoptotic cells (MDA-MB-231 cells; MDA-MB-231, 0.1 μM) was 16.6%, the total apoptotic cells (MDA-MB-231 cells; MDA-MB-231, 0.5 μM) was 17.9% and the IC50 [4] was 0.00161 ± 0.0027 µM. For the same molecule, the “effect on microtubule network of MCF-7 cells” value [5] was “extensive depolymerisation of tubulin”, the “cells in the G2/M phase” value (MCF-7 cells [6]; 24 h) was 65% and the “cells in the G2/M phase” value (MCF-7 cells [6]; 48 h) was 49%. The “cells in the G2/M phase” value (MCF-7 cells [6]; 72 h) was 51%, the “cells undergoing apoptosis (sub-G1)” value (MCF-7 cells [6]; 72 h) was 18% and the IC50 [7] was 1.5 µM.
